The assay concerns the target T1, human CCR6 (Homo sapiens, UniProt P51684).
T1 construct: expressed in transfected cells; host or cells: Ba/F3 cells (murine pro-B line), hCCR6-transfected, CMV promoter, sodium butyrate induction
T1 sequence (P51684 1-374): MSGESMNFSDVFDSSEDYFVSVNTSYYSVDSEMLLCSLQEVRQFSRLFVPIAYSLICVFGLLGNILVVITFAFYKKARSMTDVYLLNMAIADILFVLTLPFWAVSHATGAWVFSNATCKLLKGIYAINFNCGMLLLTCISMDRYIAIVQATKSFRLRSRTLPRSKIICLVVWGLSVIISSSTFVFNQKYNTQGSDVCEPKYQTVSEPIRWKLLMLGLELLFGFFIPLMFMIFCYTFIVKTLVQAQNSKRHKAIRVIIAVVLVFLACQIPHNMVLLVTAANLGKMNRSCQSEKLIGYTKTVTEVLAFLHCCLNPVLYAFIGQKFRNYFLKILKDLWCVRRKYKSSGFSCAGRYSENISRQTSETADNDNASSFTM
Nature of the assay: Migration (chemotaxis) assay, hCCR6-transfected Ba/F3 cells toward CCL20. The assay is classed as cell-based. Particulars: hCCR6-transfected Ba/F3 cells in human serum; recombinant human CCL20 10 nM; 37° C. 45 minutes; read-out: Potency (IC50 value in the migration assay). In a few lines: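 Ba/F3 cells stably transfected with human CCR6 (CMV promoter), pre-induced 24 hr with sodium butyrate, suspended at 4 million/ml in human serum with test compound serially diluted from 10 μM final. Migration through 5-μm polycarbonate membrane toward 10 nM CCL20 (EC50) for 45 min at 37 °C; migrated cells quantified by CyQUANT fluorescence.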
With `CS(=O)(=O)N1CCN(c2ccc(S(=O)(=O)N3CCC(Nc4ccc(C(F)(F)F)cn4)CC3)cc2)CC1` [Example 1.200], the IC50 lay within 5 to 100 nM.

As to `CC(=O)N1CCCN(c2ccc(S(=O)(=O)N3CCC(Nc4ccc(C(F)(F)F)cn4)CC3)cc2)CC1` [Example 1.201], the IC50 is 100 to 10000 nM.

As to `NC(=O)C1CN(c2ccc(S(=O)(=O)N3CCC(Nc4ccc(C(F)(F)F)cn4)CC3)cc2)CCO1` (stereo not drawn) [Example 1.202], the IC50 lay within 5 to 100 nM.

For the compound `NC(=O)N1CCCN(c2ccc(S(=O)(=O)N3CCC(Nc4ccc(C(F)(F)F)cn4)CC3)cc2)CC1` [Example 1.203], the IC50 lay in the range of 5 to 100 nM.

Turning to `NC(=O)N1CCN(c2ccc(S(=O)(=O)N3CCC(Nc4ccc(C(F)(F)F)cn4)CC3)cc2)CC1` [Example 1.204], the IC50 was in the range of 5 to 100 nM.

Turning to `NC(=O)NC1CCN(c2ccc(S(=O)(=O)N3CCC(Nc4ccc(C(F)(F)F)cn4)CC3)cc2)CC1` [Example 1.205], the IC50 was 5 to 100 nM.

Take `CS(=O)(=O)NC1CCN(c2ccc(S(=O)(=O)N3CCC(Nc4ccc(C(F)(F)F)cn4)CC3)cc2)CC1` [Example 1.206]: the IC50 fell in the range of 5 to 100 nM.

For the compound `N#Cc1n[nH]c2c1CN(c1ccc(S(=O)(=O)N3CCC(Nc4ccc(C(F)(F)F)cn4)CC3)cc1)CC2` [Example 1.207], the IC50 was 100 to 10000 nM.

As to `O=S(=O)(c1ccc(N2CCC(O)CC2)c(F)c1)N1CCC(Nc2ccc(C(F)(F)F)cn2)CC1` [Example 1.208], the IC50 was 100 to 10000 nM.

For the compound `O=S(=O)(c1ccc(N2CCC(O)CC2)nc1)N1CCC(Nc2ccc(C(F)(F)F)cn2)CC1` [Example 1.209], the IC50 lay within 100 to 10000 nM.

In the case of `CC(=O)NC1CCN(c2ccc(S(=O)(=O)N3CCC(Nc4ccc(C(F)(F)F)cn4)CC3)cc2)CC1` [Example 1.210], the IC50 lay in the range of 5 to 100 nM.

For the compound `O=C1CN(c2ccc(S(=O)(=O)N3CCC(Nc4ccc(C(F)(F)F)cn4)CC3)cc2)CCN1` [Example 1.211], the IC50 was 100 to 10000 nM.

Take `CC(C)(C)OC(=O)N[C@@H]1CCN(c2ccc(S(=O)(=O)N3CCC(Nc4ccc(C(F)(F)F)cn4)CC3)cc2)C1` [Example 1.212]: the IC50 was 100 to 10000 nM.

As for `CC(C)(C)OC(=O)N[C@@H]1CCCN(c2ccc(S(=O)(=O)N3CCC(Nc4ccc(C(F)(F)F)cn4)CC3)cc2)C1` [Example 1.213], the IC50 lay in the range of 100 to 10000 nM.

For `O=S(=O)(c1ccc(N2CCc3[nH]ncc3C2)cc1)N1CCC(Nc2ccc(C(F)(F)F)cn2)CC1` [Example 1.214], the IC50 lay within 5 to 100 nM.

As for `NC(=O)N1CCCC(c2ccc(S(=O)(=O)N3CCC(Nc4ccc(C(F)(F)F)cn4)CC3)cc2)C1` (stereo not drawn) [Example 1.215], the IC50 fell in the range of 5 to 100 nM.

For the compound `NC(=O)N1CCC(c2ccc(S(=O)(=O)N3CCC(Nc4ccc(C(F)(F)F)cn4)CC3)cc2)CC1` [Example 1.216], the IC50 was in the range of 5 to 100 nM.

Turning to `CC(C)(C)OC(=O)NC1CCN(c2ccc(S(=O)(=O)N3CCC(Nc4ccc(C(F)(F)F)cn4)CC3)cc2)CC1` [Example 1.217], the IC50 was in the range of 5 to 100 nM.

Regarding `CC(C)(C)OC(=O)N[C@H]1CCN(c2ccc(S(=O)(=O)N3CCC(Nc4ccc(C(F)(F)F)cn4)CC3)cc2)C1` [Example 1.218], the IC50 was in the range of 100 to 10000 nM.

With `CC(C)(C)OC(=O)N[C@H]1CCCN(c2ccc(S(=O)(=O)N3CCC(Nc4ccc(C(F)(F)F)cn4)CC3)cc2)C1` [Example 1.219], the IC50 lay within 100 to 10000 nM.

Consider `O=S(=O)(c1ccc(N2CCC(Nc3ccccc3)CC2)cc1)N1CCC(Nc2ccc(C(F)(F)F)cn2)CC1` [Example 1.220], for which the IC50 lay within 5 to 100 nM.

For `Cc1nc2c(s1)CN(c1ccc(S(=O)(=O)N3CCC(Nc4ccc(C(F)(F)F)cn4)CC3)cc1)CC2` [Example 1.221], the IC50 lay in the range of 5 to 100 nM.

As to `O=S(=O)(c1ccc(N2CCC(c3ccn[nH]3)CC2)cc1)N1CCC(Nc2ccc(C(F)(F)F)cn2)CC1` [Example 1.222], the IC50 is 5 to 100 nM.

As for `O=C1NC(=O)C2(CCCN(c3ccc(S(=O)(=O)N4CCC(Nc5ccc(C(F)(F)F)cn5)CC4)cc3)C2)N1` (stereo not drawn) [Example 1.224], the IC50 was 100 to 10000 nM.

Consider `O=S(=O)(c1ccc(C2CCCNC2)cc1)N1CCC(Nc2ccc(C(F)(F)F)cn2)CC1` (stereo not drawn) [Example 1.225], for which the IC50 fell in the range of 100 to 10000 nM.

On to `CC(=O)N1CCN(c2ccc(S(=O)(=O)N3CCC(Nc4ccc(C(F)(F)F)cn4)CC3)cc2)CC1` [Example 1.226], for which the IC50 lay within 5 to 100 nM.

Regarding `O=C1CCCCN1c1ccc(S(=O)(=O)N2CCC(Nc3ccc(C(F)(F)F)cn3)CC2)cc1` [Example 1.227], the IC50 was in the range of 100 to 10000 nM.

As for `NC(=O)C1CCN(c2ccc(S(=O)(=O)N3CCC(Nc4ccc(C(F)(F)F)cn4)CC3)cc2)CC1` [Example 1.228], the IC50 was in the range of 5 to 100 nM.

Turning to `O=S(=O)(c1ccc(N2CCn3ccnc3C2)cc1)N1CCC(Nc2ccc(C(F)(F)F)cn2)CC1` [Example 1.229], the IC50 fell in the range of 100 to 10000 nM.

As for `NC(=O)C1CCCN(c2ccc(S(=O)(=O)N3CCC(Nc4ccc(C(F)(F)F)cn4)CC3)cc2)C1` (stereo not drawn) [Example 1.230], the IC50 fell in the range of 5 to 100 nM.

`O=S1(=O)CCN(c2ccc(S(=O)(=O)N3CCC(Nc4ccc(C(F)(F)F)cn4)CC3)cc2)CC1` [Example 1.231]: the IC50 was 100 to 10000 nM.

As to `CN1CCN(c2ccc(S(=O)(=O)N3CCC(Nc4ccc(C(F)(F)F)cn4)CC3)cc2)CC1` [Example 1.232], the IC50 lay within 100 to 10000 nM.

In the case of `CC(C)(C)OC(=O)N1CCC=C(c2ccc(S(=O)(=O)N3CCC(Nc4ccc(C(F)(F)F)cn4)CC3)cc2)C1` [Example 1.233], the IC50 fell in the range of 5 to 100 nM.

As for `CC(C)(C)OC(=O)N1CC=C(c2ccc(S(=O)(=O)N3CCC(Nc4ccc(C(F)(F)F)cn4)CC3)cc2)CC1` [Example 1.234], the IC50 fell in the range of 5 to 100 nM.

`O=S(=O)(c1ccc(N2CCCCC2)cc1)N1CCC(Nc2ccc(C(F)(F)F)cn2)CC1` [Example 1.235]: the IC50 fell in the range of 5 to 100 nM.

`O=S(=O)(c1ccc(C2=CCOCC2)cc1)N1CCC(Nc2ccc(C(F)(F)F)cn2)CC1` [Example 1.236]: the IC50 lay within 5 to 100 nM.
